{
  "source": "patent US10925856B2",
  "about": "“Methods and compositions involving bucindolol for the treatment of atrial fibrillation” (priority 2018, dated 2021)",
  "key": {"[1]": {"system": "patients with HF and/or AF", "details": "cited from earlier work"}, "[2]": {"system": "NT-proBNP", "assay": "Plasma NT-proBNP (electrochemiluminescence immunoassay)"}, "[3]": {"details": "Europe excluding Hungary (n = 48)"}, "[4]": {"details": "change from baseline, Canada (n = 59)"}, "[5]": {"details": "change from baseline, Entire Cohort (n = 267)"}, "[6]": {"details": "change from baseline, Europe excluding Hungary (n = 48)"}, "[7]": {"details": "change from baseline, Hungary (n = 33)"}, "[8]": {"details": "change from baseline, U.S. (n = 127)"}},
  "data": [
    {"smiles": "COCCc1ccc(OCC(O)CNC(C)C)cc1", "note": "(centres unmarked) [metoprolol, metoprolol succinate, reference compound]", "values": [
      {"measurement": "Lowering of AF risk", "setting": "[1]; HFrEF (MERIT-HF)", "result": 48, "unit": "%"},
      {"measurement": "Incidence of AF recurrence", "setting": "[1]; persistent AF, ECV to SR, end of 6-month follow-up", "result": 52, "unit": "%"},
      {"measurement": "NT-proBNP, Week 4 Mean", "setting": "[2]; Canada", "result": 1715, "unit": "pg/mL"},
      {"measurement": "NT-proBNP, Week 4 Median", "setting": "[2]; Canada", "result": 1067, "unit": "pg/mL"},
      {"measurement": "NT-proBNP, ΔWeek 4 Mean ± SEM", "setting": "[2]; Canada", "result": -91, "unit": "pg/mL"},
      {"measurement": "NT-proBNP, ΔWeek 4 Median", "setting": "[2]; Canada", "result": -101, "unit": "pg/mL"},
      {"measurement": "NT-proBNP, Baseline Mean ± SD", "setting": "[2]; Canada (n = 59)", "result": "1646 ± 2303", "unit": "pg/mL"},
      {"measurement": "NT-proBNP, Baseline Median", "setting": "[2]; Canada (n = 59)", "result": 913, "unit": "pg/mL"},
      {"measurement": "NT-proBNP, Week 12 Mean ± SD", "setting": "[2]; Canada (n = 59)", "result": "1338 ± 1504", "unit": "pg/mL"},
      {"measurement": "NT-proBNP, Week 12 Median", "setting": "[2]; Canada (n = 59)", "result": 845, "unit": "pg/mL"},
      {"measurement": "NT-proBNP, Week 24 Mean ± SD", "setting": "[2]; Canada (n = 59)", "result": "1382 ± 1974", "unit": "pg/mL"},
      {"measurement": "NT-proBNP, Week 24 Median", "setting": "[2]; Canada (n = 59)", "result": 623, "unit": "pg/mL"},
      {"measurement": "NT-proBNP, Week 4 Mean", "setting": "[2]; Entire Cohort", "result": 1212, "unit": "pg/mL"},
      {"measurement": "NT-proBNP, Week 4 Median", "setting": "[2]; Entire Cohort", "result": 792, "unit": "pg/mL"},
      {"measurement": "NT-proBNP, ΔWeek 4 Mean ± SEM", "setting": "[2]; Entire Cohort", "result": -50, "unit": "pg/mL"},
      {"measurement": "NT-proBNP, ΔWeek 4 Median", "setting": "[2]; Entire Cohort", "result": -35, "unit": "pg/mL"},
      {"measurement": "NT-proBNP, Baseline Median", "setting": "[2]; Entire Cohort (n = 267)", "result": 861, "unit": "pg/mL"},
      {"measurement": "NT-proBNP, Week 12 Mean ± SD", "setting": "[2]; Entire Cohort (n = 267)", "result": "1134 ± 1197", "unit": "pg/mL"},
      {"measurement": "NT-proBNP, Week 12 Median", "setting": "[2]; Entire Cohort (n = 267)", "result": 652, "unit": "pg/mL"},
      {"measurement": "NT-proBNP, Week 24 Mean ± SD", "setting": "[2]; Entire Cohort (n = 267)", "result": "1334 ± 1732", "unit": "pg/mL"},
      {"measurement": "NT-proBNP, Week 24 Median", "setting": "[2]; Entire Cohort (n = 267)", "result": 661, "unit": "pg/mL"},
      {"measurement": "NT-proBNP, Week 4 Mean", "setting": "[2]; Europe excluding Hungary", "result": 820, "unit": "pg/mL"},
      {"measurement": "NT-proBNP, Week 4 Median", "setting": "[2]; Europe excluding Hungary", "result": 433, "unit": "pg/mL"},
      {"measurement": "NT-proBNP, ΔWeek 4 Mean ± SEM", "setting": "[2]; Europe excluding Hungary", "result": -117, "unit": "pg/mL"},
      {"measurement": "NT-proBNP, ΔWeek 4 Median", "setting": "[2]; Europe excluding Hungary", "result": -93, "unit": "pg/mL"},
      {"measurement": "NT-proBNP, Baseline Mean ± SD", "setting": "[2]; [3]", "result": "883 ± 880", "unit": "pg/mL"},
      {"measurement": "NT-proBNP, Baseline Median", "setting": "[2]; [3]", "result": 521, "unit": "pg/mL"},
      {"measurement": "NT-proBNP, Week 12 Mean ± SD", "setting": "[2]; [3]", "result": "867 ± 885", "unit": "pg/mL"},
      {"measurement": "NT-proBNP, Week 12 Median", "setting": "[2]; [3]", "result": 526, "unit": "pg/mL"},
      {"measurement": "NT-proBNP, Week 24 Mean ± SD", "setting": "[2]; [3]", "result": "1108 ± 962", "unit": "pg/mL"},
      {"measurement": "NT-proBNP, Week 4 Mean", "setting": "[2]; Hungary", "result": 812, "unit": "pg/mL"},
      {"measurement": "NT-proBNP, Week 4 Median", "setting": "[2]; Hungary", "result": 803, "unit": "pg/mL"},
      {"measurement": "NT-proBNP, ΔWeek 4 Mean ± SEM", "setting": "[2]; Hungary", "result": -11, "unit": "pg/mL"},
      {"measurement": "NT-proBNP, ΔWeek 4 Median", "setting": "[2]; Hungary", "result": -40, "unit": "pg/mL"},
      {"measurement": "NT-proBNP, Baseline Mean ± SD", "setting": "[2]; Hungary (n = 33)", "result": "781 ± 458", "unit": "pg/mL"},
      {"measurement": "NT-proBNP, Baseline Median", "setting": "[2]; Hungary (n = 33)", "result": 785, "unit": "pg/mL"},
      {"measurement": "NT-proBNP, Week 12 Mean ± SD", "setting": "[2]; Hungary (n = 33)", "result": "864 ± 876", "unit": "pg/mL"},
      {"measurement": "NT-proBNP, Week 12 Median", "setting": "[2]; Hungary (n = 33)", "result": 593, "unit": "pg/mL"},
      {"measurement": "NT-proBNP, Week 24 Mean ± SD", "setting": "[2]; Hungary (n = 33)", "result": "1150 ± 784", "unit": "pg/mL"},
      {"measurement": "NT-proBNP, Week 24 Median", "setting": "[2]; Hungary (n = 33)", "result": 1019, "unit": "pg/mL"},
      {"measurement": "NT-proBNP, Week 4 Mean", "setting": "[2]; U.S.", "result": 1227, "unit": "pg/mL"},
      {"measurement": "NT-proBNP, Week 4 Median", "setting": "[2]; U.S.", "result": 831, "unit": "pg/mL"},
      {"measurement": "NT-proBNP, ΔWeek 4 Mean ± SEM", "setting": "[2]; U.S.", "result": -14, "unit": "pg/mL"},
      {"measurement": "NT-proBNP, ΔWeek 4 Median", "setting": "[2]; U.S.", "result": -27, "unit": "pg/mL"},
      {"measurement": "NT-proBNP, Baseline Mean ± SD", "setting": "[2]; U.S. (n = 127)", "result": "1499 ± 2033", "unit": "pg/mL"},
      {"measurement": "NT-proBNP, Baseline Median", "setting": "[2]; U.S. (n = 127)", "result": 982, "unit": "pg/mL"},
      {"measurement": "NT-proBNP, Week 12 Mean ± SD", "setting": "[2]; U.S. (n = 127)", "result": "1224 ± 1240", "unit": "pg/mL"},
      {"measurement": "NT-proBNP, Week 12 Median", "setting": "[2]; U.S. (n = 127)", "result": 661, "unit": "pg/mL"},
      {"measurement": "NT-proBNP, Week 24 Mean ± SD", "setting": "[2]; U.S. (n = 127)", "result": "1374 ± 1839", "unit": "pg/mL"},
      {"measurement": "NT-proBNP, Week 24 Median", "setting": "[2]; U.S. (n = 127)", "result": 547, "unit": "pg/mL"},
      {"measurement": "NT-proBNP, ΔWeek 12 Mean ± SEM", "setting": "[2]; [4]", "result": "-482 ± 355", "unit": "pg/mL"},
      {"measurement": "NT-proBNP, ΔWeek 12 Median", "setting": "[2]; [4]", "result": -36, "unit": "pg/mL"},
      {"measurement": "NT-proBNP, ΔWeek 24 Mean ± SEM", "setting": "[2]; [4]", "result": "-489 ± 361", "unit": "pg/mL"},
      {"measurement": "NT-proBNP, ΔWeek 24 Median", "setting": "[2]; [4]", "result": -106, "unit": "pg/mL"},
      {"measurement": "NT-proBNP, ΔWeek 12 Mean ± SEM", "setting": "[2]; [5]", "result": "-135 ± 124", "unit": "pg/mL"},
      {"measurement": "NT-proBNP, ΔWeek 12 Median", "setting": "[2]; [5]", "result": -50, "unit": "pg/mL"},
      {"measurement": "NT-proBNP, ΔWeek 24 Median", "setting": "[2]; [5]", "result": -100, "unit": "pg/mL"},
      {"measurement": "NT-proBNP, ΔWeek 12 Mean ± SEM", "setting": "[2]; [6]", "result": "-70 ± 184", "unit": "pg/mL"},
      {"measurement": "NT-proBNP, ΔWeek 12 Median", "setting": "[2]; [6]", "result": -20, "unit": "pg/mL"},
      {"measurement": "NT-proBNP, ΔWeek 24 Mean ± SEM", "setting": "[2]; [6]", "result": "-133 ± 153", "unit": "pg/mL"},
      {"measurement": "NT-proBNP, ΔWeek 24 Median", "setting": "[2]; [6]", "result": -101, "unit": "pg/mL"},
      {"measurement": "NT-proBNP, ΔWeek 12 Mean ± SEM", "setting": "[2]; [7]", "result": "+45 ± 190 pg/ml"},
      {"measurement": "NT-proBNP, ΔWeek 12 Median", "setting": "[2]; [7]", "result": "+75 pg/ml"},
      {"measurement": "NT-proBNP, ΔWeek 24 Mean ± SEM", "setting": "[2]; [7]", "result": "+201 ± 219 pg/ml"},
      {"measurement": "NT-proBNP, ΔWeek 24 Median", "setting": "[2]; [7]", "result": "+150 pg/ml"},
      {"measurement": "NT-proBNP, ΔWeek 12 Mean ± SEM", "setting": "[2]; [8]", "result": "-63 ± 190", "unit": "pg/mL"},
      {"measurement": "NT-proBNP, ΔWeek 12 Median", "setting": "[2]; [8]", "result": -99, "unit": "pg/mL"},
      {"measurement": "NT-proBNP, ΔWeek 24 Mean ± SEM", "setting": "[2]; [8]", "result": "-158 ± 258", "unit": "pg/mL"},
      {"measurement": "NT-proBNP, ΔWeek 24 Median", "setting": "[2]; [8]", "result": -135, "unit": "pg/mL"},
      {"measurement": "NT-proBNP, ΔWeek 4 Median", "setting": "[2]; change from baseline, entire cohort", "result": -35, "unit": "pg/mL"},
      {"measurement": "NT-proBNP decrease", "setting": "[2]; end of the 24-week follow-up period, U.S.", "result": 20, "unit": "%"}
    ]}
  ]
}
